From the supplement of paper PMC4862054
Values joined by “and” are separate entries in the source; they are usually repeats but may differ in a detail not shown here. Identical values can stand only once.

Columns and labels:
Settings in all cases: incubation time: 72 h
BT-474 = experiment: normalised viability (% of control), CellTiter-Blue; higher = more viable cells (100 = DMSO, 0 = benzethonium chloride kill control)
Experimental: (§1)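 DSRT, CellTiter-Blue viability, 72 h incubation. Signal is normalised to DMSO and benzethonium chloride controls. Value is the normalised response at dose 1.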

BT-549 = experiment: as above
Experimental: as §1

CAL-120 = experiment: as above
Experimental: as §1

CAL-148 [1] = experiment: as above
Experimental: as §1

CAL-51 [2] = experiment: as above
Experimental: as §1

CAL-85-1 [3] = experiment: as above
Experimental: as §1

DU-4475 [4] = experiment: as above
Experimental: as §1

HCC1143 = experiment: as above
Experimental: as §1

HCC1599 [5] = experiment: as above
Experimental: as §1

HCC1937 = experiment: as above
Experimental: as §1

HDQ-P1 [6] = experiment: as above
Experimental: as §1

Hs578T = experiment: as above
Experimental: as §1

MDA-MB-231 [7] = experiment: as above
Experimental: as §1

MDA-MB-436 [8] = experiment: as above
Experimental: as §1

MDA-MB-453 [9] = experiment: as above
Experimental: as §1

MDA-MB-468 = experiment: as above
Experimental: as §1

MFM-223 [10] = experiment: as above
Experimental: as §1

SK-BR-3 = experiment: as above
Experimental: as §1

CAL-148 [11] = experiment: drug sensitivity score (DSS), CellTox Green (DSS (AUC-based score)); higher = stronger drug effect (viability inhibition or cytotoxicity); extreme values may be limits of the assay
Procedure, shortened: (§2)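 In 384-well plates, compound was laid out at 5 concentrations in 10-fold steps over a 10,000-fold range specific to each compound, and breast cancer cell lines were seeded on top in 20 µl suspension for a 72 h incubation. CellTox Green fluorescence and then CellTiter-Glo luminescence were read, and each plate was normalised to 0.1 % DMSO and a positive kill control. The drug sensitivity score was calculated from the area under the fitted dose-response curve.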

CAL-51 [12] = experiment: as above
Procedure, shortened: as §2

CAL-85-1 [13] = experiment: as above
Procedure, shortened: as §2

DU-4475 [14] = experiment: as above
Procedure, shortened: as §2

HCC1599 [15] = experiment: as above
Procedure, shortened: as §2

HDQ-P1 [16] = experiment: as above
Procedure, shortened: as §2

MDA-MB-231 [17] = experiment: as above
Procedure, shortened: as §2

MDA-MB-436 [18] = experiment: as above
Procedure, shortened: as §2

MDA-MB-453 [19] = experiment: as above
Procedure, shortened: as §2

MFM-223 [20] = experiment: as above
Procedure, shortened: as §2

SMILES	normalised viability (BT-474; 1 nM)	normalised viability (BT-549; 1 nM)	normalised viability (CAL-120; 1 nM)	normalised viability (CAL-148 [1]; 1 nM)	normalised viability (CAL-51 [2]; 1 nM)	normalised viability (CAL-85-1 [3]; 1 nM)	normalised viability (DU-4475 [4]; 1 nM)	normalised viability (HCC1143; 1 nM)	normalised viability (HCC1599 [5]; 1 nM)	normalised viability (HCC1937; 1 nM)	drug sensitivity score (CAL-148 [11])	drug sensitivity score (CAL-51 [12])	drug sensitivity score (CAL-85-1 [13])	drug sensitivity score (DU-4475 [14])	drug sensitivity score (HCC1599 [15])	drug sensitivity score (HDQ-P1 [16])	drug sensitivity score (MDA-MB-231 [17])	drug sensitivity score (MDA-MB-436 [18])	drug sensitivity score (MDA-MB-453 [19])	drug sensitivity score (MFM-223 [20])	further results
Cc1c(CN2CCN(C(=O)[C@H](C)O)CC2)sc2c(N3CCOCC3)nc(-c3cnc(N)nc3)nc12 [GDC-0980]	103%	91.7%	96.3%	106%	101%	83.5%	104%	94.9%	95.5%	88.1%	6.07	6.08	2.26	0	0	1.58	0	0	0	6	normalised viability (HDQ-P1 [6]; 1 nM): 95.9%; normalised viability (Hs578T; 1 nM): 102%; normalised viability (MDA-MB-231 [7]; 1 nM): 96.6%; normalised viability (MDA-MB-436 [8]; 1 nM): 84.5%; normalised viability (MDA-MB-453 [9]; 1 nM): 96.5%; normalised viability (MDA-MB-468; 1 nM): 99.6%; normalised viability (MFM-223 [10]; 1 nM): 96.8%; normalised viability (SK-BR-3; 1 nM): 92.2%
Nc1cccc2c1CN(C1CCC(=O)NC1=O)C2=O (configuration not stated) [Lenalidomide]	93.9% and 73.5%	108% and 115%	76.8% and 81.8%	92.4% and 102%	104% and 105%	79.2% and 80.7%	99% and 102%	85.5% and 80.6%	92.1% and 98.5%	90.1% and 78%	1.27	0	0	0	0	0	0	0	0	0	normalised viability (HDQ-P1 [6]; 1 nM): 86.6% and 103%; normalised viability (Hs578T; 1 nM): 97.1% and 106%; normalised viability (MDA-MB-231 [7]; 1 nM): 85.2% and 82.6%; normalised viability (MDA-MB-436 [8]; 1 nM): 97.6% and 82.2%; normalised viability (MDA-MB-453 [9]; 1 nM): 87.5% and 104%; normalised viability (MDA-MB-468; 1 nM): 99.6% and 98.9%; normalised viability (MFM-223 [10]; 1 nM): 89.4% and 94.1%; normalised viability (SK-BR-3; 1 nM): 94.7% and 87.4%
C[C@]12O[C@H](C[C@]1(O)CO)n1c3ccccc3c3c4c(c5c6ccccc6n2c5c31)CNC4=O [Lestaurtinib]	–	–	–	–	–	–	–	–	–	–	0	0	5.21	0	4.55	0	0.0124	8.14	0	0	normalised viability (BT-474; 0.1 nM): 100%; normalised viability (BT-549; 0.1 nM): 120%; normalised viability (CAL-120; 0.1 nM): 101%; normalised viability (CAL-148 [1]; 0.1 nM): 118%; normalised viability (CAL-51 [2]; 0.1 nM): 115%; normalised viability (CAL-85-1 [3]; 0.1 nM): 100%; normalised viability (DU-4475 [4]; 0.1 nM): 110%; normalised viability (HCC1143; 0.1 nM): 107%; normalised viability (HCC1599 [5]; 0.1 nM): 109%; normalised viability (HCC1937; 0.1 nM): 96.4%; normalised viability (HDQ-P1 [6]; 0.1 nM): 113%; normalised viability (Hs578T; 0.1 nM): 118%; normalised viability (MDA-MB-231 [7]; 0.1 nM): 115%; normalised viability (MDA-MB-436 [8]; 0.1 nM): 126%; normalised viability (MDA-MB-453 [9]; 0.1 nM): 113%; normalised viability (MDA-MB-468; 0.1 nM): 126%; normalised viability (MFM-223 [10]; 0.1 nM): 107%; normalised viability (SK-BR-3; 0.1 nM): 97.7%
O=C1c2c(O)ccc(O)c2C(=O)c2c(NCCNCCO)ccc(NCCNCCO)c21 [Mitoxantrone]	–	–	–	–	–	–	–	–	–	–	3.55	3.21	0	0	0	0	0	0	0	0	normalised viability (BT-474; 0.1 nM): 75.9%; normalised viability (BT-549; 0.1 nM): 90.5%; normalised viability (CAL-120; 0.1 nM): 74.6%; normalised viability (CAL-148 [1]; 0.1 nM): 108%; normalised viability (CAL-51 [2]; 0.1 nM): 109%; normalised viability (CAL-85-1 [3]; 0.1 nM): 80.5%; normalised viability (DU-4475 [4]; 0.1 nM): 102%; normalised viability (HCC1143; 0.1 nM): 79.2%; normalised viability (HCC1599 [5]; 0.1 nM): 92.1%; normalised viability (HCC1937; 0.1 nM): 92.5%; normalised viability (HDQ-P1 [6]; 0.1 nM): 101%; normalised viability (Hs578T; 0.1 nM): 93.6%; normalised viability (MDA-MB-231 [7]; 0.1 nM): 87.4%; normalised viability (MDA-MB-436 [8]; 0.1 nM): 121%; normalised viability (MDA-MB-453 [9]; 0.1 nM): 90.6%; normalised viability (MDA-MB-468; 0.1 nM): 90.7%; normalised viability (MFM-223 [10]; 0.1 nM): 84.2%; normalised viability (SK-BR-3; 0.1 nM): 108%
Nc1ccccc1NC(=O)c1ccc(CNc2nccc(-c3cccnc3)n2)cc1 [Mocetinostat]	107%	117%	81.7%	107%	93.6%	91.8%	91.3%	91.1%	92.2%	90.8%	2.32	8.87	7.11	0	1.87	14.5	8.8	10.1	0	0	normalised viability (HDQ-P1 [6]; 1 nM): 84.2%; normalised viability (Hs578T; 1 nM): 113%; normalised viability (MDA-MB-231 [7]; 1 nM): 110%; normalised viability (MDA-MB-436 [8]; 1 nM): 99.2%; normalised viability (MDA-MB-453 [9]; 1 nM): 92.5%; normalised viability (MDA-MB-468; 1 nM): 92%; normalised viability (MFM-223 [10]; 1 nM): 91.2%; normalised viability (SK-BR-3; 1 nM): 93%
C[C@]12C=CC(=O)C=C1CC[C@@H]1[C@@H]2[C@@H](O)C[C@@]2(C)[C@H]1CC[C@]2(O)C(=O)CO [Prednisolone]	117%	101%	83.5%	111%	104%	97.7%	95.6%	95.1%	118%	88.8%	0	0	0	0	0	0.861	0	–	0	0	normalised viability (HDQ-P1 [6]; 1 nM): 85.7%; normalised viability (Hs578T; 1 nM): 122%; normalised viability (MDA-MB-231 [7]; 1 nM): 105%; normalised viability (MDA-MB-436 [8]; 1 nM): 108%; normalised viability (MDA-MB-453 [9]; 1 nM): 100%; normalised viability (MDA-MB-468; 1 nM): 109%; normalised viability (MFM-223 [10]; 1 nM): 102%; normalised viability (SK-BR-3; 1 nM): 130%
